One assay deals with T1, Cav2.2 (Homo sapiens, UniProt Q00975).
T1 construct: expressed in transfected cells; host or cells: HEK-293T/17 (transient, FuGENE 6)
The assay is described as follows: HEK assay (whole-cell patch clamp, transiently transfected HEK-293T/17 cells, pulses P1 and P5). Type of assay: cell-based. As to conditions: holding potential −100 mV. How it is done: HEK-293T/17 cells were transiently transfected in a similar manner as described in FuGENE 6 Package Insert Version 7, April 2002, Roche Applied Science, Indianapolis, Ind. The cells were plated at 2.5×10^5 cells in 2 mL in a 6-well plate, incubated for one night, and achieved a ˜30-40% confluence. In a small sterile tube, sufficient serum-free medium was added as diluent for FuGENE Transfection Reagent (Roche Applied Science, Indianapolis, Ind.) to a total volume of 100 μL. To this medium was added 3 μL of FuGENE 6 Reagent. The mixture was tapped gently to mix. To the prediluted FuGENE 6 Reagent was added 2 μg of DNA solution (0.8-2.0 μg/μL). The DNA/Fugene 6 mixture was gently pipeted to mix the contents and incubated for about 15 minutes at room temperature. The complex mixture was then added to the HEK-293T/17 cells, distributed around the well, and swirled to ensure even dispersal. The cells were returned to the incubator for 24 hours. The transfected cells were then replated at density 2.5×10^5 in a 35 mm dish with 5 glass coverslips and grew in low serum (1%) media for 24 hours. Coverslips with isolated cells were then transferred into a chamber, and calcium channel (e.g., L-type, N-type, etc.) current or other currents for counter screening were recorded from the transiently transfected HEK-293T/17 cells.
The whole-cell voltage clamp configuration of the patch clamp technique was employed to evaluate voltage-dependent calcium currents essentially as described by Thompson and Wong (1991), J. Physiol., 439: 671-689, the entire disclosure of which is herein incorporated by reference. To record calcium channel (e.g., L-type, N-type, etc.) currents for evaluation of inhibitory potency of compounds (steady-state concentration-response analysis), five pulses of 20-30 ms voltage steps to about +10 mV (the peak of the current voltage relationship) were delivered at five Hz every 30 second from a holding potential at −100 mV. In order to obtain an estimate of the degree of use-dependent block of the test compounds, IC50 values were determined at the first and fifth pulse of the train (P1 and P5, respectively, in Table 2). Compound evaluations were carried out essentially as described by Sah D. W. and Bean B. P. (1994), Mol. Pharmacol., 45:84-92, the entire disclosure of which is herein incorporated by reference.
A general note: Patch clamp records ionic current or voltage across a cell membrane.

Assay [1] has as its target T2, human Cav2.2 (composed of the subunits α1, β3 and α2δ) (Homo sapiens, UniProt Q00975).
T2 construct: expressed in transfected cells
The assay is described as follows: FLIPR assay (TSA201 cells stably transfected with human Cav2.2 and human Kir2.3, FLUO-4 Ca2+ signal, KCl depolarization). As to conditions: 70 mM KCl depolarization, average value. It is filed as cell-based. How it is done:
TSA201 cells stably transfected with human Cav2.2 (composed of the subunits α1, β3 and α2δ) and human Kir2.3 to enhance the FLIPR Ca^2+ signal were used. These cells were plated on 384-well collagen-coated plates (BD Bioscience, Franklin Lakes, N.J.) at a density of 2×10^4 cells/well one day prior to the FLIPR assay. […] Culture media is removed and replaced with 25 μl of the FLUO-4 dye solution and incubated for one hour at room temperature. The cell plate is then placed on the FLIPR where the dye is aspirated off and replaced with 25 μl of HBSS (Invitrogen, Carlsbad, Calif.). The HBSS is then aspirated and replaced with […] of compound which is diluted in HBSS with 1% DMSO. Compounds are incubated on the cells for 15 minutes. The cells are then depolarized with 25 μl of 140 mM KCl solution (also containing 2 mM CaCl2 and 10 mM HEPES). The final concentration of KCl on the cells is 70 mM.

Setting [2] is: fifth pulse (P5) of 5 Hz train, read-out: HEK Cav2.2 P5 IC50.
The mark [3] stands for this setting: first pulse (P1) of 5 Hz train, read-out: HEK Cav2.2 P1 IC50.

Like-named read-outs stand apart in the source and are kept apart here. Where only a bound is given, the exact number is not on record here.

Data on 25 compounds can be found in patent publication US20100267697A1, “ION CHANNEL MODULATORS” (Wyeth, priority 2006, published 2010).

T1 sequence (Q00975 whole entry): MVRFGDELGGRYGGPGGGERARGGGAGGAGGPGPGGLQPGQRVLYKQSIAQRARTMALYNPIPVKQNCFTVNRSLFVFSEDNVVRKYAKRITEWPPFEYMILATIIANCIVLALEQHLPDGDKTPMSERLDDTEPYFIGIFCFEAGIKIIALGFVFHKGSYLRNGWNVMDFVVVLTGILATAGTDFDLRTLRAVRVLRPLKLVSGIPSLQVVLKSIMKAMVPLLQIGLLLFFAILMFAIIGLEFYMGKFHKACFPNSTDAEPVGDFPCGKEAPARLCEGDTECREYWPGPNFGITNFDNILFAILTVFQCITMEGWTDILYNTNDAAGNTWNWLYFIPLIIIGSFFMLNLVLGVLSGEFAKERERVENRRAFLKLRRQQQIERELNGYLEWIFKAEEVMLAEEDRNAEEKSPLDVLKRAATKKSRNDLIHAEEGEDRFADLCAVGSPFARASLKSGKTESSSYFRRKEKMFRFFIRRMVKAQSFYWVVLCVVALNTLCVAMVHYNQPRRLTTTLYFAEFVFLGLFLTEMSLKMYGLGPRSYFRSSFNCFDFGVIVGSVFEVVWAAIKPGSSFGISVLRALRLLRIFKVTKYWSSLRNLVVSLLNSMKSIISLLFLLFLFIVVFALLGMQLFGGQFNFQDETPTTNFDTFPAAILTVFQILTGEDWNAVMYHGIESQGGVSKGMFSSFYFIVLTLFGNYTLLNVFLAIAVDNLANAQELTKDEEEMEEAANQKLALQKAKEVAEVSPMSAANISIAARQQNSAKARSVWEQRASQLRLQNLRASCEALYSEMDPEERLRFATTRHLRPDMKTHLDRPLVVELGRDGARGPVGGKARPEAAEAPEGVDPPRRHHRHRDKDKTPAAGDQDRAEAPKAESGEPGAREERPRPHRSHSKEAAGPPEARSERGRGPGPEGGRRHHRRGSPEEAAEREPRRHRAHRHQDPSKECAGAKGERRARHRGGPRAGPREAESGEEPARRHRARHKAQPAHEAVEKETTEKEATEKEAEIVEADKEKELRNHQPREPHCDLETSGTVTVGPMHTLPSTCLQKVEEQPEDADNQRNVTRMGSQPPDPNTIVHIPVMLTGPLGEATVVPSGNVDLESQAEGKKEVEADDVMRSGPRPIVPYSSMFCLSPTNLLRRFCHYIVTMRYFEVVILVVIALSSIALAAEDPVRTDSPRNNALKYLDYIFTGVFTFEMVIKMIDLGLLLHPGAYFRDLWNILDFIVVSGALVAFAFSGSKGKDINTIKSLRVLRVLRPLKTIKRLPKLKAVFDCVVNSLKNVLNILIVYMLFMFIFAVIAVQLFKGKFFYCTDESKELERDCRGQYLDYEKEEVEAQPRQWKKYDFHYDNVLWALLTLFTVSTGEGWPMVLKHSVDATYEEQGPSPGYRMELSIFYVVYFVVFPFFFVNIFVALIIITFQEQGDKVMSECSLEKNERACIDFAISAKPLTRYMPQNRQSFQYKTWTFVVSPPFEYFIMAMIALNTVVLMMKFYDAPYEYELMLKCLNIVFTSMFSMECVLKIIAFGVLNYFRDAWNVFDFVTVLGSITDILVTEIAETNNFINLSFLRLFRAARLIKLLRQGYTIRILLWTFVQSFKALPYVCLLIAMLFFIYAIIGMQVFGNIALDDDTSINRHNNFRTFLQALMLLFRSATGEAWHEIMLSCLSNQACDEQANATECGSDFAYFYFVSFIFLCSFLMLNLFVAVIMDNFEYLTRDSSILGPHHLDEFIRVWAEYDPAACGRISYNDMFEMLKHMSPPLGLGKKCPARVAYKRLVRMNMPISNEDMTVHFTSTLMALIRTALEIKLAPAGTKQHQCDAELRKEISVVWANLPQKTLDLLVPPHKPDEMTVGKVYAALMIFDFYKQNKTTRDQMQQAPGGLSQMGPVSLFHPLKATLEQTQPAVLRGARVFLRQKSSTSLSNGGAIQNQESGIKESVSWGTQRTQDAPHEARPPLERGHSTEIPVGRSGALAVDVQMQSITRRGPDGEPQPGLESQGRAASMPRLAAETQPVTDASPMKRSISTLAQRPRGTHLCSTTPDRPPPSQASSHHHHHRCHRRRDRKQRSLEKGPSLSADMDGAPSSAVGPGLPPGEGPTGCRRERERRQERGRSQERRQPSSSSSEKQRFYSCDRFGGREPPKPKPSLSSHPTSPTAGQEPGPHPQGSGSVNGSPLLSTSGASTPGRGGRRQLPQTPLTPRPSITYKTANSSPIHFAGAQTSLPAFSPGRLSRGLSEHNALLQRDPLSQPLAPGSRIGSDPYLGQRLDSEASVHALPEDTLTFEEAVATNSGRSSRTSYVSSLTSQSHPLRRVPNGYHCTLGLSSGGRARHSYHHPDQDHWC
T1 sequence (P54284 whole entry partner): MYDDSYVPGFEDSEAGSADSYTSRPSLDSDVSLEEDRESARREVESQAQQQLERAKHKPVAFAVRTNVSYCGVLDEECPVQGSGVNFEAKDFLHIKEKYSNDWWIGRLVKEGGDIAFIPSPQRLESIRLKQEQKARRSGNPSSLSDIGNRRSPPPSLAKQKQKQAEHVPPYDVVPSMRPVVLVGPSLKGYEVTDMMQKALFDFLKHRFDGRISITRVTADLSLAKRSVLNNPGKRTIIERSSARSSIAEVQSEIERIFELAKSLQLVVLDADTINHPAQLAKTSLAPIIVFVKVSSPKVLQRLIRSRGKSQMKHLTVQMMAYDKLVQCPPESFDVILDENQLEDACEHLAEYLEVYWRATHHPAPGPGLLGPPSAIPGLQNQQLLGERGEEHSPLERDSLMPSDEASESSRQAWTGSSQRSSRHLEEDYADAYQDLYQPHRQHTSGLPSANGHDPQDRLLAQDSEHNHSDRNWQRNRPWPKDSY
T1 sequence (P54289 25-946 partner limits assumed): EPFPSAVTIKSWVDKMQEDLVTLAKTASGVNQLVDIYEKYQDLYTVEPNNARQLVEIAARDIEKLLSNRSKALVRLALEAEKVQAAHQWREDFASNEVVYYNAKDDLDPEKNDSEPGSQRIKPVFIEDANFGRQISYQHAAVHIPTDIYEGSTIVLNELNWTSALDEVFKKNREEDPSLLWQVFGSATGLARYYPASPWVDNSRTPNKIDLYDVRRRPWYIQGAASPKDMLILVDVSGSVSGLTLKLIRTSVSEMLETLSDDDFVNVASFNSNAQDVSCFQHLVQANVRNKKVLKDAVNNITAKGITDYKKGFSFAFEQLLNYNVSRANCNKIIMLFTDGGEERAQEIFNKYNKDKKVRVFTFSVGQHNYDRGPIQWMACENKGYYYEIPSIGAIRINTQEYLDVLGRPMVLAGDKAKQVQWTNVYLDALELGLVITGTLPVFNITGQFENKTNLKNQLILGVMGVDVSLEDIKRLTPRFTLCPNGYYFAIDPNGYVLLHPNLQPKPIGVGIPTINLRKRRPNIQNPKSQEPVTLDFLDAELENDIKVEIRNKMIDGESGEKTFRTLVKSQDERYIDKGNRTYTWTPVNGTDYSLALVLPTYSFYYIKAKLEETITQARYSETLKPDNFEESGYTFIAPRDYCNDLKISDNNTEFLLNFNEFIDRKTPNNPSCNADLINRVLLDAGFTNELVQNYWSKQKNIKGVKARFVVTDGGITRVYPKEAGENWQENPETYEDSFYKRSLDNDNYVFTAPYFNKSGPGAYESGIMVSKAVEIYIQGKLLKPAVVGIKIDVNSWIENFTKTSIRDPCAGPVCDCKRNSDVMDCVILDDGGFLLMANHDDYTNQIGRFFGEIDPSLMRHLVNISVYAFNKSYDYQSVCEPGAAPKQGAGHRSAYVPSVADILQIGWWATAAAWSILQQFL
T1 sequence (P54289 947-1103 partner limits assumed): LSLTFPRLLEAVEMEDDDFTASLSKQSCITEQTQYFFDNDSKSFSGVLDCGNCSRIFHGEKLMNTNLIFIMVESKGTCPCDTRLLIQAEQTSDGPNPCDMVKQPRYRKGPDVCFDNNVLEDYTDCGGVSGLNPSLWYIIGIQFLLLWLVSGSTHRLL
T2 sequence (Q00975 whole entry): as the sequence (Q00975 whole entry) above
T2 sequence (P54284 whole entry partner): as the sequence (P54284 whole entry partner) above
T2 sequence (P54289 25-946 partner limits assumed): as the sequence (P54289 25-946 partner limits assumed) above
T2 sequence (P54289 947-1103 partner limits assumed): as the sequence (P54289 947-1103 partner limits assumed) above

On to `CCN(CC)c1ccc(CN(C(=O)CCC(C)C)c2ccc(N(C)C)cc2)cc1` [Compound 91, 4-Methyl-pentanoic acid (4-Diethylaminobenzyl)-(4-dimethylamino-phenyl)-amide], for which the half-maximal inhibitory concentration (IC50) (in general, the concentration that gives 50% inhibition) stood at 0.6 µM on Cav2.2 (setting [2]) and 1 µM on Cav2.2 (setting [3]).
Regarding `CCN(c1cccc(CN(C(=O)C(C)(C)C)c2ccc(F)cc2)n1)C1CC1` [Compound 92, N-[6-(Cyclopropyl(ethyl)amino)-pyridin-2-ylmethyl]-N-(4-fluorophenyl)-2,2-dimethyl-propionamide], the IC50 at Cav2.2 (setting [2]) is 0.8 µM; on Cav2.2 (setting [3]) it was 1.8 µM.
The corresponding values for `CCN(CC)c1ccc(CN(C(=O)/C=C/C(C)C)c2ccc(N(C)C)cc2)cc1` [Compound 94, 4-Methyl-pent-2-enoic acid (4-Diethylaminobenzyl)-(4-dimethylamino-phenyl)-amide] are 0.7 µM and 1.8 µM.
Consider `CCN(CC)c1nc(CN(C(=O)CCC(C)C)c2ccc(N(C)C)cc2)cs1` [Compound 95, 4-Methyl-pentanoic acid (2-diethylamino-thiazol-4-ylmethyl)-(4-dimethylamino-phenyl)-amide], for which the figures for the IC50 on Cav2.2 (setting [2]) and at Cav2.2 (setting [3]) were 2.3 µM and 7.9 µM, respectively.
The matching figures for `CCN(CC)c1nc(CN(C(=O)C(C)(C)CC)c2ccc(N(C)C)cc2)cs1` [Compound 96, N-(2-Diethylamino-thiazol-4-ylmethyl)-N-(4-dimethyalmino-phenyl)-2,2-dimethyl-butyramide]: 1.1 µM and 4.5 µM.
The matching figures for `CCN(CC)c1ccc(N(Cc2cccc(N(CC)C3CC3)c2)C(=O)C(C)(C)C)cc1` [Compound 97, N-[3-(Cyclopropyl(ethyl)amino)-benzyl]-N-(4-diethylamino-phenyl)-2,2-dimethyl-propionamide]: 0.4 µM and 1.1 µM.
The corresponding values for `CCN(CC)c1ccc(CN(C(=O)CCC(C)C)c2ccc(N)cc2)cc1` [Compound 98, 4-Methyl-pentanoic acid (4-aminophenyl)-(4-Diethylaminobenzyl)-amide] are 1.9 µM and 5.2 µM.
For `CCN(CC)c1ccc(CN(C(=O)CCC(C)C)c2ccc(NC)cc2)cc1` [Compound 99, 4-Methyl-pentanoic acid (4-Diethylaminobenzyl)-(4-methylamino-phenyl)-amide], the IC50 at Cav2.2 (setting [2]) was under 0.1 µM; on Cav2.2 (setting [3]), 4.3 µM.
`CCN(c1ccc(CN(C(=O)C(C)(C)C)c2ccc(N(C)C)cc2)cn1)C1CC1` [Compound 100, N-[6-(Cycloproyl(ethyl)amino)-pyridin-3-ylmethyl]-N-(4-dimethylamino-phenyl)-2,2-dimethyl-propionamide]: the IC50 on Cav2.2 (setting [2]) was 4.3 µM; at Cav2.2 (setting [3]), 8 µM.
As for `CC(C)(C)OC(=O)N(Cc1csc(-c2ccncc2)n1)c1ccc(F)cc1` [Compound 101, (4-Fluorophenyl)-(2-pyridin-4-yl-thiazol-4-ylmethyl)-carabamic acid tert-butyl ester], on Cav2.2 (setting [2]), the IC50 is 8.4 µM.
Still for that read-out and setting: with `CN1CCN(c2ncc(CN(C(=O)OC(C)(C)C)c3ccc(F)cc3)s2)CC1` [Compound 102, (4-Fluorophenyl)-[2-(4-methyl-piperazin-1-yl)-thiazol-5-ylmethyl]-carbamic acid tert-butyl ester] the figure was 9.6 µM.
For `O=C(C1CC1)N(Cc1csc(N2CCCCC2)n1)c1ccc(F)cc1` [Compound 107, Cyclopropanecarboxylic acid (4-fluorophenyl)-(2-piperidin-1-yl-thiazol-4-ylmethyl)-amide], the IC50 is 2.5 µM at Cav2.2 (setting [2]) and 11.1 µM on Cav2.2 (setting [3]).
The corresponding values for `O=C(C1CCCCC1)N(Cc1csc(N2CCOCC2)n1)c1ccc(F)cc1` [Compound 108, Cyclohexanecarboxylic acid (4-fluorophenyl)-(2-morpholin-4-yl-thiazol-4-ylmethyl)-amide] are 3.9 µM and 14.1 µM.
The matching figures for `O=C(C1CCCO1)N(Cc1ccc(N2CCN(c3ccccn3)CC2)nc1)c1ccc(F)cc1` (stereo not drawn) [Compound 109, Tetrahydro-furan-2-carboxylic acid (4-fluorophenyl)-[6-(4-pyridin-2-yl-piperazin-1-yl)-pyridin-3-ylmethyl]-amide]: 2.6 µM and 13.9 µM.
The corresponding values for `CN(c1ccc(F)cc1)c1nc(CN(C(=O)C2CCCN2C)c2ccc(F)cc2)cs1` (stereo not drawn) [Compound 114, 1-Methyl-pyrrolidine-2-carboxylic acid (4-fluroophenyl)-{2-[(4-fluorophenyl)-methyl-amino]-thiazol-4-ylmethyl]-amide] are 2.1 µM and 4.8 µM.
Consider `CCN(c1ccc(CN(C(=O)C2CCCN2Cc2ccccc2)c2ccc(F)cc2)cn1)C1CC1` (stereo not drawn) [Compound 115, 1-Benzyl-pyrrolidine-2-carboxylic acid [6-(Cyclopropyl(ethyl)amino)-pyridin-3-ylmethyl]-(4-fluorophenyl)-amide], for which the half-inhibitory concentration (IC50) at Cav2.2 (setting [2]) was found to be 0.6 µM; at Cav2.2 (setting [3]), 2.7 µM.
In the case of `CCN(CC)c1ccc(CN(C(=O)[C@@H]2CCCN2)c2ccc(F)cc2)cn1` [Compound 116, N-{[6-(diethylamino)pyridin-3-yl]methyl}-N-(4-fluroophenyl)-L-prolinamide], in assay [1], the IC50 is 34.8 µM.
Same read-out and setting: with `CCN(c1ccc(CN(C(=O)[C@@H]2CCCN2)c2ccc(OC)cc2)cc1)C1CC1` [Compound 117, N-{4-[cyclopropyl(ethyl)amino]benzyl}-N-(4-methoxyphenyl)-L-prolinamide] the figure was 9.7 µM.
The same measure, in the same setting: with `CCN(c1cccc(CN(C(=O)[C@@H]2CCCN2)c2ccc(F)cc2)c1)C1CC1` [Compound 118, N-{3-[cyclopropyl(ethyl)amino]benzyl}-N-(4-fluorophenyl)-L-prolinamide] the figure was 3.4 µM; with `CCN(CC)c1cccc(CN(C(=O)[C@@H]2CCCN2)c2ccc(Cl)cc2)n1` [Compound 119, N-(4-chlorophenyl)-N-{[6-(diethylamino)pyridin-2-yl]methyl}-L-prolinamide], 12.2 µM; with `Cc1cc(F)ccc1N(Cc1cnc(N2CCCCC2)nc1)C(=O)[C@@H]1CCCN1` [Compound 120, N-(4-fluoro-2-methylphenyl)-N-[(2-piperidin-1-ylpyrimidin-5-yl)methyl]-L-prolinamide], 13.7 µM.
On the same count and under the same terms, with `Cc1ccc(N(Cc2cnc(N3CCCC3)s2)C(=O)[C@@H]2CCCN2)cc1` [Compound 121, N-(4-methylphenyl)-N-[(2-pyrrolidin-1-yl-1,3-thiazol-5-yl)methyl]-L-prolinamide] the figure was 20.9 µM; with `CCN(c1nc(CN(C(=O)[C@@H]2CCCN2)c2ccc(F)cc2)cs1)C1CC1` [Compound 122, N-({2-[cyclopropyl(ethyl)amino]-1,3-thiazol-4-yl}methyl)-N-(4-fluorophenyl)-L-prolinamide], 13.8 µM.
For `CCN(c1nc(CN(C(=O)[C@H]2CCCN2)c2ccc(F)cc2)cs1)C1CC1` [Compound 123, N-({2-[cyclopropyl(ethyl)amino]-1,3-thiazol-4-yl}methyl)-N-(4-fluorophenyl)-D-prolinamide], in assay [1], the 50% inhibitory concentration (IC50) was 10.2 µM.
On the same count and under the same terms, with `CCN(c1nc(CN(C(=O)[C@@H]2CCC(=O)N2)c2ccc(F)cc2)cs1)C1CC1` [Compound 124, N-({2-[cyclopropyl(ethyl)amino]-1,3-thiazol-4-yl}methyl)-N-(4-fluorophenyl)-5-oxo-L-prolinamide] the figure was 19.7 µM.
